Data published in patent US20240391862A1, “(1,4,5-TRISUBSTITUTED-1H-PYRAZOL-3-YL)OXY-2-ALKOXY ALKYL ACIDS AND THEIR DERIVATIVES, THEIR SALTS AND THEIR USE AS HERBICIDAL AGENTS” (Bayer AKtiengesellschaft, priority 2021, published 2024).

Experiments:
ZEAMX = assay: Post-emergence herbicidal effect and crop plant compatibility, greenhouse pot test; type: in vivo, Zea mays; conditions: Zea mays, 504 h, one-leaf stage, rated visually after about 3 weeks vs untreated controls
In short: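 Visual % activity scored roughly 3 weeks post-spray against untreated plants, where 100% means death and 0% equals control. Plants were treated at the one-leaf stage, 2 to 3 weeks after sowing in sandy loam, at 20 to 320 g/ha.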

TRZAS = assay: as above; type: in vivo, Triticum aestivum; conditions: for Post-emergence effect against TRZAS: visual rating about 3 weeks after treatment, crop plant
Excerpt: • ALOMY: Alopecurus myosuroides SETVI: Setaria viridis • AVEFA: Avena fatua POLCO: Fallopia convolvulus • AMARE: Amaranthus retroflexus ECHCG: Echinochloa crus-galli • LOLRJ: Lolium rigidum STEME: Stellaria media • VERPE: Veronica persica MATIN: Tripleurospermum inodorum • DIGSA: Digitaria sanguinalis ABUTH: Abutylon threophrasti • TRZAS: Triticum aestivum VIOTR: Viola tricolor • BRSNW: Brassica napus ZEAMX: Zea mays • PHBPU: Ipomoea purpurea GLXMA: Glycine max • ORYSA: Oryza sativa HORMU: Hordeum murinum
Seeds of monocotyledonous and dicotyledonous weeds and crop plants are placed in sandy loam in plastic or organic planting pots, covered with soil and cultivated in a greenhouse under controlled growth conditions. 2 to 3 weeks after sowing, the trial plants are treated at the one-leaf stage. The compounds of the invention, formulated in the form of wettable powders (WP) or as emulsion concentrates (EC), are then sprayed onto the green parts of the plants as aqueous suspension or emulsion with addition of 0.5% additive at a water application rate of 600 l/ha (converted). After the test plants have been kept in the greenhouse under optimum growth conditions for about 3 weeks, the activity of the preparations is rated visually in comparison to untreated controls. For example, 100% activity=the plants have died, 0% activity=like control plants.
Tables 20a to 38c below show the effects/crop compatibilities of selected compounds of the general formula (I) on various harmful plants at an application rate corresponding to 20 to 320 g/ha, which were obtained by the trial procedure specified above.

ABUTH = assay: Post-emergence herbicidal effect, greenhouse pot test; type: in vivo, Abutilon theophrasti; conditions: visual rating about 3 weeks after treatment
In short: (§1)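 Sandy loam pots, greenhouse. One-leaf stage (2–3 wk after sowing) foliar spray; WP/EC in water + 0.5% additive, 600 l/ha; 20–320 g/ha. Visual score ~3 wk, 0–100% vs untreated.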

AMARE = assay: as above; type: in vivo, Amaranthus retroflexus; conditions: visual rating about 3 weeks after treatment
In short: as §1

AVEFA = assay: as above; type: in vivo, Avena fatua; conditions: 320 g/ha, visual rating about 3 weeks after treatment
In short: as §1

DIGSA = assay: as above; type: in vivo, Digitaria sanguinalis; conditions: 320 g/ha, visual rating about 3 weeks after treatment
In short: as §1

ECHCG = assay: as above; type: in vivo, Echinochloa crus-galli; conditions: for Post-emergence effect against ECHCG: 20 g/ha, visual rating about 3 weeks after treatment
In short: as §1

MATIN = assay: as above; type: in vivo, Tripleurospermum inodorum
In short: as §1

PHBPU = assay: as above; type: in vivo, Ipomoea purpurea
In short: as §1

SETVI = assay: as above; type: in vivo, Setaria viridis; conditions: 320 g/ha
In short: as §1

VERPE = assay: as above; type: in vivo, Veronica persica
In short: as §1

VIOTR = assay: as above; type: in vivo, Viola tricolor
In short: as §1

[1] = 20 g/ha, one-leaf stage, rated visually after about 3 weeks vs untreated controls

SMILES	Post-emergence effect at 20 g/ha against TRZAS in % (TRZAS; [1]) [%]	Post-emergence effect against TRZAS (TRZAS; 80 g/ha) [%]	Post-emergence effect against TRZAS (TRZAS; 320 g/ha) [%]	Post-emergence effect against ABUTH (ABUTH; 80 g/ha) [%]	Post-emergence effect against ABUTH (ABUTH; 320 g/ha) [%]	Post-emergence effect against AMARE (AMARE; 80 g/ha) [%]	Post-emergence effect against AMARE (AMARE; 320 g/ha) [%]	Post-emergence effect against AVEFA (AVEFA) [%]	Post-emergence effect against ECHCG (ECHCG) [%]	Post-emergence effect against ECHCG in % (ECHCG; 80 g/ha) [%]	Post-emergence effect against ECHCG in % (ECHCG; 320 g/ha) [%]	Post-emergence effect against MATIN in % (MATIN; 80 g/ha) [%]	Post-emergence effect against MATIN in % (MATIN; 320 g/ha) [%]	Post-emergence effect against PHBPU in % (PHBPU; 80 g/ha) [%]	Post-emergence effect against PHBPU in % (PHBPU; 320 g/ha) [%]	Post-emergence effect against SETVI in % (SETVI) [%]	Post-emergence effect against VERPE in % (VERPE; 80 g/ha) [%]	Post-emergence effect against VERPE in % (VERPE; 320 g/ha) [%]	Post-emergence effect against VIOTR in % (VIOTR; 80 g/ha) [%]	Post-emergence effect against VIOTR in % (VIOTR; 320 g/ha) [%]	other results
CCOC(Oc1nn(-c2ccccc2F)c(-c2ccc(F)nc2)c1Cl)C(=O)O (stereo not drawn) [Example I-52]																					plant injury at 20 g/ha (ZEAMX; 20 g/ha, read-out: Post-emergence effect at 20 g/ha against ZEAMX in %): 0%; plant injury at 80 g/ha (ZEAMX; 80 g/ha, read-out: Post-emergence effect at 80 g/ha against ZEAMX in %): 0%; plant injury at 320 g/ha (ZEAMX; 320 g/ha, read-out: Post-emergence effect at 320 g/ha against ZEAMX in %): 0%; percent crop injury (phytotoxicity) to wheat, post-emergence at 20 g/ha (TRZAS; Triticum aestivum, 504 h, 20 g/ha, one-leaf stage, rated visually after about 3 weeks vs untreated controls, read-out: Post-emergence effect at 20 g/ha against TRZAS in %): 0%
CCOC(=O)C(OC)Oc1nn(-c2cccc(C)c2F)c(-c2ccc(F)nc2)c1Br (stereo not drawn) [Example I-94]	0	10	20	80	90	80	90	80	80	100	100	80	90	90	90	90	80	90	80	90	Post-emergence effect against DIGSA (DIGSA): 80%; Post-emergence effect against PHBPU in % (PHBPU; 20 g/ha): 80%
COC(=O)CCOC(=O)C(OC)Oc1nn(-c2cccc(C)c2F)c(-c2ccc(F)nc2)c1Br (stereo not drawn) [Example I-95]	0	0	0	80	90	80	90		80	90	100	80	80	90	90	90	80	90	80	90	
COC(=O)C(OC)Oc1nn(-c2cccc(C)c2F)c(-c2ccnc(F)c2)c1Br (stereo not drawn) [Example I-115]	0	10	20		80			80			90				80	90		80			
